The text below walks through data of US10357484B2, “Heterocyclic compound” (Takeda Pharmaceutical Company Limited, priority 2015, dated 2019).

Common to all, as to type: biochemical
Test [1] concerns the target T1, HDAC6 enzyme (Homo sapiens, UniProt Q9UBN7).
T1 construct: transducing full length HDAC1 and HDAC6 genes into Sf-9 insect cells; GST; purchased SignalChem; host or cells: Sf-9 insect cells
T1 sequence (Q9UBN7 1-1215): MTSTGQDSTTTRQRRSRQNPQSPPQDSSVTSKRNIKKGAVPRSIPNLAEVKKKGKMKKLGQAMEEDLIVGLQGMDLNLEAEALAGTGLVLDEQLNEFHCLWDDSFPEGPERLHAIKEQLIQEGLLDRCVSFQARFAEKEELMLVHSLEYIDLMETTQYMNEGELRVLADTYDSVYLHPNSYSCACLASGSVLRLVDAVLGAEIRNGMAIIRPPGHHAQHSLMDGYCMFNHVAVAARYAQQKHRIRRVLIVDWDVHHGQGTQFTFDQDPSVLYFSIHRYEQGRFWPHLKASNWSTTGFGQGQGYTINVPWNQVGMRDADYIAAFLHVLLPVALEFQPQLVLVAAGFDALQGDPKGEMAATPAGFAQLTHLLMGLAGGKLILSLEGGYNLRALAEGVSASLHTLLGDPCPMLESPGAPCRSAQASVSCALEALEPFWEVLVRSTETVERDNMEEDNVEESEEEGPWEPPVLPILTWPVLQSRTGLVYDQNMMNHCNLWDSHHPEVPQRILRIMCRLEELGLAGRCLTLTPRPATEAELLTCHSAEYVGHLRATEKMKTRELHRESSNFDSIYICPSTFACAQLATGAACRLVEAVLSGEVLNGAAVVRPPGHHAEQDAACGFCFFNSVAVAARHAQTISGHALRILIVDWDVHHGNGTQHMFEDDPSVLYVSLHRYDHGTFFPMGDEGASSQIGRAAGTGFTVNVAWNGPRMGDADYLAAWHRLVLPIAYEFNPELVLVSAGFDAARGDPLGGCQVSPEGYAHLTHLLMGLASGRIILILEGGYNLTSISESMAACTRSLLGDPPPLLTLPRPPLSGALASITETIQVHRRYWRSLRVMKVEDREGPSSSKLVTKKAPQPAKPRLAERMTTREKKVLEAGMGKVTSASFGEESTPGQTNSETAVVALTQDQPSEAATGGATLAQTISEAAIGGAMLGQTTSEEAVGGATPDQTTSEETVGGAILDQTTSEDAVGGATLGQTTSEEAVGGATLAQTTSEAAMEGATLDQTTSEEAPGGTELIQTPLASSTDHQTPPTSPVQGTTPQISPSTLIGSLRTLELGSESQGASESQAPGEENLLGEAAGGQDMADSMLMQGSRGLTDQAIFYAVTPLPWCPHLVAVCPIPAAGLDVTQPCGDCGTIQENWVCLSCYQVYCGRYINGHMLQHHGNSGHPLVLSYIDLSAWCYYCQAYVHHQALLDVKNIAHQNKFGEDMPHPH
Put plainly: HDAC6 enzyme inhibitory assay (HDAC-Glo I/II Assay kit). The conditions noted are these: 1 μM test compound; wells without enzyme = 100% inhibition; read-out: HDAC6 inhibitory rate (%) (1 μM). How it is done: (§1) HDAC1/6 Enzyme Inhibitory Assay
(§2) HDAC1 enzyme and HDAC6 enzyme each prepared by transducing full length HDAC1 and HDAC6 genes into Sf-9 insect cells and purifying by GST affinity column were purchased from SignalChem. Using these enzymes, HDAC1 and/or HDAC6 enzyme inhibitory activities of the compound of the present invention were evaluated. Enzymes were used after preserved at −70° C. HDAC1 or HDAC6 enzyme inhibitory activity of the compound of the present invention was measured using HDAC-Glo™ I/II Assay kit (Promega) according to the following experimental method. The test compound diluted with assay buffer (24 mM Tris-HCl (pH 7.5), 1 mM MgCl2, 0.35 mM KCl, 135 mM NaCl, 0.6 mM Glutathione, 0.01% Tween-20) was added to a 384-well plate by each 2 μL. Then, HDAC1 or HDAC6 enzyme solution diluted with assay buffer was added thereto by each 4 μL, and the plate was incubated at room temperature for 60 min. After incubated, HDAC substrate-Developer solution prepared according to Promega protocol attached to the assay kit was added to the 384-well plate by each 2 μL, and the enzyme reaction was started. After reacting at room temperature for 20 min, luminescence level was measured using plate reader Envision (PerkinElmer). The inhibitory activity of each compound was calculated as a relative activity value when luminescence level in wells without enzyme is considered as 100% inhibition.

For test [2], the target named is T2, HDAC1 enzyme (Homo sapiens, UniProt Q13547).
T2 construct: transducing full length HDAC1 and HDAC6 genes into Sf-9 insect cells; GST; purchased SignalChem; host or cells: Sf-9 insect cells
T2 sequence (Q13547 whole entry): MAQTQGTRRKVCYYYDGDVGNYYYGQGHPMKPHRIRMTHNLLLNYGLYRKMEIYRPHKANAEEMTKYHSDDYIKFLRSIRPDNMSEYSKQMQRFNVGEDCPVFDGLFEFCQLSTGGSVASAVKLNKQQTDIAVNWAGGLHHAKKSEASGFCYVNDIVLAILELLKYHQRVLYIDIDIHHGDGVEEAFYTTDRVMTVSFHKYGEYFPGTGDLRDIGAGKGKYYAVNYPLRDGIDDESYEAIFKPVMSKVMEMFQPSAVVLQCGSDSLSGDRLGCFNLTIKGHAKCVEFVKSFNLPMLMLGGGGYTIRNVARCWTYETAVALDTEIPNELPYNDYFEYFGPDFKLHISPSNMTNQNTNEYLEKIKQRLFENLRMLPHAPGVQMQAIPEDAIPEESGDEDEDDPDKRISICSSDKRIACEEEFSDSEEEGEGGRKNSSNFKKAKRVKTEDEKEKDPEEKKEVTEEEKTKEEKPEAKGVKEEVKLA
Put plainly: HDAC1 enzyme inhibitory assay (HDAC-Glo I/II Assay kit). The conditions noted are these: 1 μM test compound; wells without enzyme = 100% inhibition; read-out: HDAC1 inhibitory rate (%) (1 μM). How it is done:
as §1, §2

Test [3] concerns the target T3, HDAC9 enzyme (Homo sapiens, UniProt Q9UKV0).
T3 construct: transducing full length HDAC9 gene into Sf-9 insect cells; made in house; host or cells: Sf-9 insect cells
The test is described as follows: HDAC9 enzyme inhibitory assay (HDAC-Glo class IIa). Particulars: 1 μM test compound; wells without enzyme = 100% inhibition; read-out: HDAC9 inhibitory rate (%) (1 μM). How it is done:
HDAC9 Enzyme Inhibitory Assay
Enzyme was prepared by transducing full length HDAC9 gene into Sf-9 insect cells and purifying by Ni-NTA affinity column, and HDAC9 enzyme inhibitory activity was evaluated. Enzymes were used after preserved at −70° C. HDAC9 enzyme inhibitory activity of the test compound was measured using HDAC-Glo class IIa (Promega) according to the following experimental method. The test compound diluted with assay buffer (24 mM Tris-HCl (pH 7.5), 1 mM MgCl2, 0.35 mM KCl, 135 mM NaCl, 0.6 mM Glutathione, 0.01% Tween-20) was added to a 384-well plate by each 2 μL. Then, HDAC9 enzyme solution diluted with assay buffer was added thereto by each 2 μL, and the plate was incubated at room temperature for 60 min. After incubated, HDAC substrate-Developer solution prepared according to Promega protocol was added to the 384-well plate by each 4 μL, and the enzyme reaction was started. After reacting at room temperature for 20 min, luminescence level was measured using plate reader Envision (PerkinElmer). The inhibitory activity of each compound was calculated as a relative activity value when luminescence level in wells without enzyme is considered as 100% inhibition.

T3 sequence (Q9UKV0 whole entry, species assumed): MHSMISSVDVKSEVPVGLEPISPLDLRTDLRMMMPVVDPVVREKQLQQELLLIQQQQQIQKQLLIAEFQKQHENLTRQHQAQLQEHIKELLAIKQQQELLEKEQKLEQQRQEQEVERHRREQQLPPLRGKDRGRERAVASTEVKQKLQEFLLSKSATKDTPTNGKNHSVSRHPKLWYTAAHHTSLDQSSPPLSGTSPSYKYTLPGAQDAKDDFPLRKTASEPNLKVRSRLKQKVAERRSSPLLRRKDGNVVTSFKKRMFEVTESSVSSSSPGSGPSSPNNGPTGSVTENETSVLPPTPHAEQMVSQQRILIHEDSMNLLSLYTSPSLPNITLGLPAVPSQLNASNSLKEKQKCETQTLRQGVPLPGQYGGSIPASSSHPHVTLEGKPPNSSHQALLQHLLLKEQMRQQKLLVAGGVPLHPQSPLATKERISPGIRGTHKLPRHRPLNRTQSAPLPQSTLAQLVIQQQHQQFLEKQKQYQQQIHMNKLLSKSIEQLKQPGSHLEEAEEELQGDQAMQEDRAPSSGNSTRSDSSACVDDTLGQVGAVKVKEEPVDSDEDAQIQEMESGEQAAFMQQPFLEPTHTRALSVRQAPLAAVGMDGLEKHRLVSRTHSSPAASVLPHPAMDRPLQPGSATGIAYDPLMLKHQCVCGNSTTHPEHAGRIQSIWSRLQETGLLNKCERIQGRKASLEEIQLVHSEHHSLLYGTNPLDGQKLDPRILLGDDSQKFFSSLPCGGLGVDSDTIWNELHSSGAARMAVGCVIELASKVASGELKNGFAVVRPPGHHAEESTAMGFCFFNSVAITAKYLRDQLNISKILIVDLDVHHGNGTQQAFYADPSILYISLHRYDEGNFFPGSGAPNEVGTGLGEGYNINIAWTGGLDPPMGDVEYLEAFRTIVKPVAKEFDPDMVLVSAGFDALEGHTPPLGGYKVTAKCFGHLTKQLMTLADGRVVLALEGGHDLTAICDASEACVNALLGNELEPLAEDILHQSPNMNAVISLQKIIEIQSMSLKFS

Take `CC(C)(c1ccccc1)N1Cc2ncc(-c3noc(C(F)(F)F)n3)cc2C1=O` [Example 3, 6-(2-phenylpropan-2-yl)-3-(5-(trifluoromethyl)-1,2,4-oxadiazol-3-yl)-6,7-dihydro-5H-pyrrolo[3,4-b]pyridin-5-one]: the inhibition at 1 µM in test [1] stood at 98%; in test [2], 36%; in test [3], 89%.
As for `CC(c1ccccn1)N1Cc2ccc(-c3noc(C(F)(F)F)n3)cc2C1=O` (stereo not drawn) [Example 34], the inhibition at 1 µM in test [1] stood at 97%; in test [2] it was 16%; in test [3], 79%.
Turning to `O=C1c2cc(-c3noc(C(F)(F)F)n3)ccc2CN1Cc1ccccc1Oc1ccccc1` [Example 11, 2-(2-phenoxybenzyl)-6-(5-(trifluoromethyl)-1,2,4-oxadiazol-3-yl)isoindolin-1-one], the inhibition at 1 µM in test [1] was determined as 68%; in test [2], 4%; in test [3] it was 5%.
The matching figures for `O=C1c2cc(-c3noc(C(F)(F)F)n3)cnc2CN1Cc1cccnc1` [Example 4, 6-(pyridin-3-ylmethyl)-3-(5-(trifluoromethyl)-1,2,4-oxadiazol-3-yl)-6,7-dihydro-5H-pyrrolo[3,4-b]pyridin-5-one]: 93%, 43% and 93%.
`O=C1c2cc(-c3noc(C(F)(F)F)n3)cnc2CN1Cc1ccccc1` [Example 1, 6-benzyl-3-(5-(trifluoromethyl)-1,2,4-oxadiazol-3-yl)-6,7-dihydro-5H-pyrrolo[3,4-b]pyridin-5-one]: the inhibition at 1 µM turned out to be 101% in test [1], 61% in test [2] and 94% in test [3].
As for `C[C@@H](c1ccccc1)N1Cc2ccc(-c3noc(C(F)(F)F)n3)cc2C1=O` [Example 8, 2-((1S)-1-phenylethyl)-6-(5-(trifluoromethyl)-1,2,4-oxadiazol-3-yl)isoindolin-1-one], the inhibition at 1 µM in test [1] stood at 99%; in test [2], 19%; in test [3], 87%.
With `C[C@@H](c1ccc(F)cc1OC(F)F)N1Cc2ccc(-c3noc(C(F)(F)F)n3)cc2C1=O` [Example 21, 2-((1S)-1-(2-(difluoromethoxy)-4-fluorophenyl)ethyl)-6-(5-(trifluoromethyl)-1,2,4-oxadiazol-3 yl)isoindolin-1-one], the values for the inhibition at 1 µM in test [1], in test [2] and in test [3] were 96%, 18% and 73%, respectively.
